Experimental data from patent publication US6211212A, “Pyrrolidine and thiazole derivatives with metallo-beta-lactamase inhibitory properties” (SmithKline Beecham p.l.c., priority 1997, dated 2001).
pIC50: −log10 of the molar value.

Biological target: B.fragilis CfiA metallo-β-lactamase (Bacteroides fragilis, UniProt P25910)
Assay: I50 screen (nitrocefin reporter substrate)
Format: biochemical
Conditions: 25 μM PIPES pH 7, 37° C., nitrocefin 91 μM, 5 minute preincubation, Zn2+ 100 μM
Protocol: The inhibitory activity of the compounds of the invention was measured in 25 μM PIPES pH 7 buffer at 10 concentrations (1000, 333, 111, 37, 12.3, 4.1, 1.4, 0.46, 0.15 and 0.05 μM) at 37° C. using nitrocefin (91 μM final concentration) as the reporter substrate. The assays were performed with a 5 minute preincubation of enzyme and inhibitor and were conducted in the presence of added zinc sulphate (Zn^2+ 100 μM, final concentration). The methodology is described in detail in the following references: Payne et al (1991), J. Antimicrob. Chemother., 28:255; Payne et al (1994), Antimicrob. Agents and Chemother., 38:767.

Chain of B.fragilis CfiA metallo-β-lactamase (P25910 19-249): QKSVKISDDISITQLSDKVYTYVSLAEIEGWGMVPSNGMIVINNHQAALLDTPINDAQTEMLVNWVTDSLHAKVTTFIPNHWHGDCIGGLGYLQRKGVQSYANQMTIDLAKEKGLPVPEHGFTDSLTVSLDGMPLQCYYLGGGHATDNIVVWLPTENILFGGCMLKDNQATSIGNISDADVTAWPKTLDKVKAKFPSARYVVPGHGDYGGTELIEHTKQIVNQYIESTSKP

O=C(N[C@@H](C(=O)O)c1ccccc1)[C@H]1CCCC[C@H]1S (mixture of isomers) [Example E3, N-[2-(R,S)-Mercapto-1-(R,S)-cyclohexancarbonyl]-D-phenylglycine]
pIC50: > 6.00
